Test system: client proteins and HSP90-related proteins in SK-OV-3 tumor
Assay: Immunoblot: change in expression amount of proteins in SK-OV-3 tumor after administration
Format: in vivo, human
Details: 40 mg/kg tail vein
Description: Thirty micrograms of total protein was subjected to electrophoresis in 8% acrylamide gel. Then, the protein was transferred onto a PVDF membrane at a voltage of 100 V for 60 min at 4 °C. The PVDF membrane on which the protein had been transferred was blocked in TBS-Tween (0.1%) containing 5% milk at normal temperature for 60 min, followed by incubating with each of primary antibodies described below overnight at 4 °C. • Primary antibody (supplier, product number, dilution ratio, exposure time) • EGFR (Santa Cruz, sc-003, 1:500, 1 min) • HER2 (Santa Cruz, sc-284, 1:2000, 5 sec) • HER3 (Santa Cruz, sc-285, 1:400, 1 min) • Met (Santa Cruz, sc-161, 1:500, 5 min) • IGF-1R (Cell Signaling, #3027, 1:500, 15 sec) • Raf-1 (Santa Cruz, sc-133, 1:300, 5 min) • Stat3 (BD Transduction Laboratory, 610189, 1:500, 15 sec) • pAkt (Cell Signaling, #4058S, 1:500, 1 min) • Akt (Cell Signaling, #4691S, 1:2000, 15 sec) • pERK (Santa Cruz, sc-16982-R, 1:500, 1 min) • ERK (Invitrogen, 44-654G, 1:1000, 15 sec) • mTOR (Cell Signaling, #2983S, 1:500, 15 sec) • MEK (Cell Signaling, #9122S, 1:500, 1 min) • HSP90 (Enzo Life Science, SPA-830, 1:500, 15 sec) • HSP70 (Enzo Life Science, SPA-810, 1:2000, 15 sec) • Actin (Santa Cruz, sc-8432/HRP, 1:300, 5 min)
After incubation, the blot membrane was washed with TBS-Tween (0.1%) at normal temperature for 10 min three times to thereby remove excessive primary antibodies. Then, the membrane was incubated with an appropriate secondary antibody (anti-rabbit IgG HRP conjugate or anti-mouse IgG HRP conjugate) at normal temperature for 60 min. The membrane was washed with TBS-Tween (0.1%) at normal temperature for 10 min three times to thereby remove excessive secondary antibodies. Then, the membrane was incubated with ECL Western Blotting Detection Reagents (GE Healthcare) for 2 min, followed by exposing to an X-ray film. Thus, the signal of the intended protein was detected.
Tumors to be transplanted derived from human ovarian cancer cell lines SK-OV-3 and TOV-21G were prepared in the same manner as in Example 1.
Protein extraction liquid was obtained from each tumor as follows. The human ovarian cancer tumors maintained by passage in SCID mice were transplanted subcutaneously to the dorsums of SCID mice with trocars. When the tumor volume of each tumor reached about 300 mm^3, the triazole (A-1) synthesized as the HSP90 inhibitor in Synthetic Example 1 was administered into a tail vein of each of the mice at a dose of 40 mg/kg in the same manner as in Example 1. The tumors were removed before and 4 and 24 hours after administration. At each time point, the tumors were removed from three mice for the SK-OV-3 tumor and two mice for the TOV-21G tumor. Protein extraction liquids were obtained in the same manner as in Example 1. The total protein amount in each of the extraction liquids was quantified in the same manner as in Example 1.
The immunoblot method was used to verify change in expression amounts of the client proteins and the HSP90-related proteins in the SK-OV-3 and TOV-21G tumors to which the triazole compound (A-1) had been administered, in the same manner as in Example 1. The types and dilution ratios of primary antibodies and secondary antibodies used were the same as in Example 1.

[1] = SK-OV-3 tumor after administration
[2] = SK-OV-3 tumor, 4 hours after administration

`CC(C)c1cc(-c2n[nH]c(=O)n2-c2ccc(CN3CCN(C)CC3)cc2)c(O)cc1O` [A-1, 5-(2,4-dihydroxy-5-isopropyl-phenyl)-4-[4-(4-methyl-piperazin-1-ylmethyl)-phenyl]-2,4-dihydro-[1,2,4]triazol-3-one] was tested, and the “expression amount of total Akt” value [1] was “not changed”, the “expression amount of total ERK” value [1] was “not changed” and the “expression level of EGFR” value [2] was “significantly decreased”. The “expression level of IGF-1R” value [2] was “significantly decreased”, the “expression level of Met” value [2] was “significantly decreased” and the “expression level of mTOR” value [2] was “significantly decreased”. For the same compound, the “expression level of pAkt” value [2] was “significantly decreased” and the “expression level of pERK” value [2] was “significantly decreased”.

Source: US20160313301A1, “METHOD FOR PREDICTING ANTITUMOR EFFICACY OF HSP90 INHIBITOR IN CANCER TREATMENT” (NIPPON KAYAKU KABUSHIKI KAISHA, priority 2013, published 2016)
